Experimental data as given in ChEMBL document CHEMBL4680139, “Antiproliferative activity of diarylnaphthylpyrrolidine derivative via dual target inhibition” (Eur J Med Chem, 2020).
pIC50: −log10 of the molar value.

Tests used:
[1] = tested on: MCF7; test: Induction of cell cycle arrest in human MCF-7 cells assessed as accumulation at G2/M phase at 8.66 uM by propidium iodide staining based flow cytometry (reference value: 15.2%); type: functional
[2] = tested on: MDA-MB-231; test: Induction of apoptosis in human MDA-MB-231 cells assessed as proportion of viable cells at 5.21 uM measured after 24 hrs by Annexin V-FITC/propidium iodide staining based flow cytometry (reference value: 99%); type: functional
[3] = Toxicity in Swiss albino mouse assessed as serum protein level at 300 mg/kg, po administered as single dose (reference value: 2.83 +/-0.09 mg/ml); type: organism-based; details: in vivo
[4] = Toxicity in Swiss albino mouse assessed as cholesterol level in serum at 50 mg/kg, po administered as single dose (reference value: 103.62 +/-7.45 mg/dl); type: organism-based; details: in vivo
[5] = Toxicity in Swiss albino mouse assessed as body weight at 5 mg/kg, po administered as single dose (reference value: 31.62 +/- 1.64 gms); type: organism-based; details: in vivo
[6] = tested on: MCF7; test: Induction of apoptosis in human MCF-7 cells assessed as proportion of early apoptotic cells at 8.66 uM measured after 24 hrs by Annexin V- FITC/propidium iodide staining based flow cytometry (reference value: 0%); type: functional
[7] = Toxicity in Swiss albino mouse assessed as absolute and relative spleen weight at 5 to 300 mg/kg, po administered as single dose; type: organism-based; details: in vivo, dose 5-300 mg/kg
[8] = tested on: MDA-MB-231; test: Antiproliferative activity against human MDA-MB-231 cells assessed as inhibition of cell growth measured after 48 hrs by SRB assay; type: functional, cell-based; details: MDA-MB-231, 48 h, read-out: IC50
[9] = tested on: MDA-MB-231; test: Induction of apoptosis in human MDA-MB-231 cells assessed as proportion of viable cells at 2.6 uM measured after 24 hrs by Annexin V-FITC/propidium iodide staining based flow cytometry (reference value: 99%); type: functional
[10] = Toxicity in Swiss albino mouse assessed as creatinine level in serum at 300 mg/kg, po administered as single dose (reference value: 0.27+/-0.02 mg/dl); type: organism-based; details: in vivo
[11] = Toxicity in Swiss albino mouse assessed as WBC level in blood at 50 mg/kg, po administered as single dose (reference value: 17.06 +/- 1.33x10^3/mm3); type: organism-based; details: in vivo
[12] = tested on: MDA-MB-231; test: Induction of cell cycle arrest in human MDA-MB-231 cells assessed as accumulation at S phase at 10.42 uM by propidium iodide staining based flow cytometry (reference value: 11.35 +/- 0.07%); type: functional
[13] = tested on: MCF7; test: Induction of apoptosis in human MCF-7 cells assessed as proportion of early apoptotic cells at 4.33 uM measured after 24 hrs by Annexin V- FITC/propidium iodide staining based flow cytometry (reference value: 0%); type: functional
[14] = tested on: MDA-MB-231; test: Induction of apoptosis in human MDA-MB-231 cells assessed as proportion of necrotic cells at 10.42 uM measured after 24 hrs by Annexin V-FITC/propidium iodide staining based flow cytometry (reference value: 0.2%); type: functional
[15] = Toxicity in Swiss albino mouse assessed as SGOT level in serum at 50 mg/kg, po administered as single dose (reference value: 22.12 +/-1.91 U/L); type: organism-based; details: in vivo
[16] = tested on: MCF7; test: Induction of cell cycle arrest in human MCF-7 cells assessed as accumulation at G0/G1 phase at 2.17 uM by propidium iodide staining based flow cytometry (reference value: 74.5%); type: functional
[17] = Toxicity in Swiss albino mouse assessed as absolute and relative kidney weight at 5 to 300 mg/kg, po administered as single dose; type: organism-based; details: in vivo, dose 5-300 mg/kg
[18] = Toxicity in Swiss albino mouse assessed as absolute and relative lung weight at 5 to 300 mg/kg, po administered as single dose; type: organism-based; details: in vivo, dose 5-300 mg/kg
[19] = tested on: MCF7; test: Antiproliferative activity against human MCF-7 cells assessed as proportion of dead cells at 6.25 ug/ml measured after 3 weeks by crystal violet staining based soft agar colony formation assay; type: functional; details: dose 6.25 µg/ml
[20] = tested on: MDA-MB-231; test: Induction of cell cycle arrest in human MDA-MB-231 cells assessed as accumulation at G0/G1 phase at 2.6 uM by propidium iodide staining based flow cytometry (reference value: 77.7 +/- 0.28%); type: functional
[21] = tested on: MDA-MB-231; test: Induction of cell cycle arrest in human MDA-MB-231 cells assessed as accumulation at G0/G1 phase at 10.42 uM by propidium iodide staining based flow cytometry (reference value: 77.7 +/- 0.28%); type: functional
[22] = tested on: MDA-MB-231; test: Induction of apoptosis in human MDA-MB-231 cells assessed as proportion of necrotic cells at 5.21 uM measured after 24 hrs by Annexin V-FITC/propidium iodide staining based flow cytometry (reference value: 0.2%); type: functional
[23] = molecular target: DNA topoisomerase 2-alpha (Homo sapiens) (UniProt P11388); test: Inhibition of DNA-topoisomerase 2 in human MCF7 cells using kinetoplast DNA as substrate at 8.66 uM measured by ELISA; type: cell-based
Chain of DNA topoisomerase 2-alpha (Homo sapiens) (P11388 whole entry): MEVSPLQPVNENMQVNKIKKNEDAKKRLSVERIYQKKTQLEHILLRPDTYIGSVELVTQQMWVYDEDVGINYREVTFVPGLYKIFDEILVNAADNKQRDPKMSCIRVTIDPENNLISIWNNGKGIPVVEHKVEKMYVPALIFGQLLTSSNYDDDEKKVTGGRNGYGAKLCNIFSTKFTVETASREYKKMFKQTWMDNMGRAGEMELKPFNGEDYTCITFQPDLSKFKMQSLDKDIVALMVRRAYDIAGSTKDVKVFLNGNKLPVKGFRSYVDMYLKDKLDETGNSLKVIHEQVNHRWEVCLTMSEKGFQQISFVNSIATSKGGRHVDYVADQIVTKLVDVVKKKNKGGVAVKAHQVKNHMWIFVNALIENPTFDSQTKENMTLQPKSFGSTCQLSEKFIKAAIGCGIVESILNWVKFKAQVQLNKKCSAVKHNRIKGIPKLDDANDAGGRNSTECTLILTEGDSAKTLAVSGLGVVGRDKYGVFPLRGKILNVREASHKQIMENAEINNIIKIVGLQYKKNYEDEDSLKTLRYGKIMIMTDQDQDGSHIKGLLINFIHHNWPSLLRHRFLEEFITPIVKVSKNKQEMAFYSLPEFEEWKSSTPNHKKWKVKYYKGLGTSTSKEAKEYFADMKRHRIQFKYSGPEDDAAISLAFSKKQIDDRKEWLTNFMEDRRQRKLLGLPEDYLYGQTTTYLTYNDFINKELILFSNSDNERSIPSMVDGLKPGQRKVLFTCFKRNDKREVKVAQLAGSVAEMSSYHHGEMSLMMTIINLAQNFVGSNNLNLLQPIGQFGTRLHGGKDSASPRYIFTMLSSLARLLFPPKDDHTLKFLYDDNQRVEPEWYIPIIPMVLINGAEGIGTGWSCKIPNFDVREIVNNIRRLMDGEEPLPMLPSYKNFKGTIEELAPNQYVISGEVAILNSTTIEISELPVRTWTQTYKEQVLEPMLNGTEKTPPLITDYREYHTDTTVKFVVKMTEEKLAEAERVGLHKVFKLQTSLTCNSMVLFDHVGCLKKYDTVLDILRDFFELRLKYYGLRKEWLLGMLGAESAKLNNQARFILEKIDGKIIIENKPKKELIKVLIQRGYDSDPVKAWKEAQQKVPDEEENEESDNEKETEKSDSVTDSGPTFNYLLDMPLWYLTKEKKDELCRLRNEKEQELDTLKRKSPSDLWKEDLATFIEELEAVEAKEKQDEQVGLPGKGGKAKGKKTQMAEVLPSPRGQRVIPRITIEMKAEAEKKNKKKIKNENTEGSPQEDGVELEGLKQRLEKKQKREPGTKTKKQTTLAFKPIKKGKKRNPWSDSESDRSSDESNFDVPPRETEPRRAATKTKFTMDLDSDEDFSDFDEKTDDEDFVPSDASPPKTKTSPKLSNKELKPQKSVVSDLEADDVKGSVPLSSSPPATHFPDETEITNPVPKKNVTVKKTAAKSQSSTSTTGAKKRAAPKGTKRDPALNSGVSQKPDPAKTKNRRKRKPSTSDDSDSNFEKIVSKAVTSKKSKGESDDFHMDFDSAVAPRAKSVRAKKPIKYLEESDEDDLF

[24] = tested on: MDA-MB-231; test: Induction of cell cycle arrest in human MDA-MB-231 cells assessed as accumulation at G2/M phase at 2.6 uM by propidium iodide staining based flow cytometry (reference value: 8.35 +/-0.07%); type: functional
[25] = tested on: MDA-MB-231; test: Induction of apoptosis in human MDA-MB-231 cells assessed as proportion of viable cells at 10.42 uM measured after 24 hrs by Annexin V-FITC/propidium iodide staining based flow cytometry (reference value: 99%); type: functional
[26] = tested on: MCF7; test: Induction of cell cycle arrest in human MCF-7 cells assessed as accumulation at S phase at 8.66 uM by propidium iodide staining based flow cytometry (reference value: 6.9%); type: functional
[27] = Toxicity in Swiss albino mouse assessed as triglyceride level in serum at 50 mg/kg, po administered as single dose (reference value: 78.34 +/-2.99 mg/dl); type: organism-based; details: in vivo
[28] = tested on: MDA-MB-231; test: Induction of apoptosis in human MDA-MB-231 cells assessed as proportion of necrotic cells at 2.6 uM measured after 24 hrs by Annexin V-FITC/propidium iodide staining based flow cytometry (reference value: 0.2%); type: functional
[29] = tested on: MCF7; test: Induction of apoptosis in human MCF-7 cells assessed as proportion of late apoptotic cells at 4.33 uM measured after 24 hrs by Annexin V- FITC/propidium iodide staining based flow cytometry (reference value: 0.1%); type: functional
[30] = tested on: MCF7; test: Antiproliferative activity against human MCF-7 cells assessed as proportion of live cells at 50 ug/ml measured after 3 weeks by crystal violet staining based soft agar colony formation assay (reference value: 100%); type: functional; details: dose 50 µg/ml
[31] = tested on: MCF7; test: Induction of apoptosis in human MCF-7 cells assessed as proportion of necrotic cells at 8.66 uM measured after 24 hrs by Annexin V- FITC/propidium iodide staining based flow cytometry (reference value: 5.3%); type: functional
[32] = molecular target: DNA topoisomerase 2-alpha (Homo sapiens) (UniProt P11388); test: Inhibition of DNA-topoisomerase 2 in human MCF7 cells using kinetoplast DNA as substrate at 4.33 uM measured by ELISA; type: cell-based
[33] = Toxicity in Swiss albino mouse assessed as morbidity upto 300 mg/kg, po administered as single dose; type: organism-based; details: in vivo
[34] = Toxicity in Swiss albino mouse assessed as RBC level in blood at 5 mg/kg, po administered as single dose (reference value: 10.56 +/- 1.22x10^6/mm3); type: organism-based; details: in vivo

COc1ccc(C(c2ccccc2OCCN2CCCC2)c2cccc3ccccc23)c(OC)c1OC (centres undefined)
Activity [1]: 12.8% | Activity [2]: 91.4% | Activity [3]: 2.87 mg/mL | Activity [4]: 100.11 mg/dL | Activity [5]: 30.58 g | Activity [6]: 0% | Activity [7]: Non-Toxic | pIC50 [8]: 5.28 | Activity [9]: 95.1% | Activity [10]: 0.2 mg/dL | Activity [11]: 13.46 10^3/mm3 | Activity [12]: 11.35% | Activity [13]: 0% | Activity [14]: 14.7% | Activity [15]: 25.42 U/L | Activity [16]: 74.6% | Activity [17]: Non-Toxic | Activity [18]: Non-Toxic | Activity [19]: 29.23% | Activity [20]: 80.2% | Activity [21]: 56.9% | Activity [22]: 1.7% | inhibition [23]: 13.7% | Activity [24]: 10.35% | Activity [25]: 49.4% | Activity [26]: 9.2% | Activity [27]: 94.42 mg/dL | Activity [28]: 2.1% | Activity [29]: 25.8% | Activity [30]: 12.98% | Activity [31]: 12.1% | inhibition [32]: 0.22% | Activity [33]: Non-Toxic | Activity [34]: 13.06 million/mm3
